Assay results: patent US20210236445A1, “BACLOFEN AND ACAMPROSATE BASED THERAPY OF ALZHEIMER'S DISEASE IN PATIENTS HAVING LOST RESPONSIVENESS TO ACETYLCHOLINESTERASE INHIBITOR THERAPY” (priority 2018, published 2021)

Experiments:
[1] = test system: Aβ25-35-induced spontaneous alternation deficits in mice; assay: Spontaneous alternation performance (Y-maze) in Aβ25-35 ICV-injected mice; assay type: in vivo, Swiss mice; settings: Example C
[2] = test system: patient's cognitive function; settings: cited from earlier work
[3] = test system: Aβ25-35-induced spontaneous alternation deficits in mice; assay: Spontaneous alternation performance (Y-maze) in Aβ25-35 ICV-injected mice; assay type: in vivo, Swiss mice; settings: for Effect on Aβ25-35-induced cognitive impairment, spontaneous alternation (Y-maze), after longer treatment / Effect on Aβ25-35-induced cognitive impairment, spontaneous alternation (Y-maze): Example A; for Effect on Aβ25-35-induced cognitive impairment, spontaneous alternation (Y-maze), after longer treatment: treatment alone from D20, tested D38 or D40; for Effect on Aβ25-35-induced cognitive impairment, spontaneous alternation (Y-maze): treatment alone per os from D20, eleven days, tested D30, donepezil 1 mg/Kg once a day or acamprosate/baclofen 0.2/3 mg/Kg twice a day
Method: (§1) Male Swiss mice were anesthetized 5 minutes with isoflurane 2.5%. At Day 01, animals were injected intracerebroventricularly (ICV) through a 28-gauge stainless-steel needle, 4 mm long. An injection volume of 3 μl was delivered gradually within 30 s and the needle left in place for an additional 30 s before being removed. […] Homogeneous preparation of the Aβ25-35 peptide were performed according to the AMYLGEN's own procedure.
(§2) All animals received a per os gavage using an inox steel cannula (5 mL/Kg). All the treatments were administered under a volume calculated according to the individual body weight of each mouse (5 mL/Kg). Vehicle and donepezil (1 mg/Kg) administration were done once a day, and the mix Acamprosate/baclofen twice a day (0.2 mg/Kg and 3 mg/Kg, respectively).
(§3) In a first set of experiments (FIG. 1A), the treatment, donepezil (1 mg/Kg), was started 19 days (D20) after icy injection for 21 days (D40) (group 3 and 4). At D30 one group of animals treated with donepezil was administered with acamprosate and baclofen (0.2 mg/Kg and 3 mg/Kg, respectively), in addition of donepezil treatment (group 4).
(§4) In a second set of experiments (FIG. 1B). The treatment, donepezil (1 mg/kg) (Group 5) or the combination acamprosate and baclofen (0.2 mg/Kg and 3 mg/Kg, respectively) (group 7), was started 19 days (D20) after icy injection and maintained for 23 days (D42) in two groups of animals. In a third group of animals (group 6), initially treated with donepezil, treatment with donepezil was stopped at D30 and replaced with administration of acamprosate and baclofen (0.2 mg/Kg and 3 mg/Kg, respectively) until D42.
(§5) Mice were tested for spontaneous alternation performance in the Y-maze, an index of spatial working memory. The Y-maze was designed according to Itoh et al.,1993 (57) and Hiramatsu and Inoue, 1999 (58), and is made of grey polyvinylchloride. Each arm is 40 cm long, 13 cm high, 3 cm wide at the bottom, 10 cm wide at the top, and converging at an equal angle. Each mouse was placed at the end of one arm and allowed to move freely through the maze during an 8 min session. The series of arm entries, including possible returns into the same arm, were checked visually by an experimenter blind to treatment. An alternation is defined as entries into all three arms on consecutive occasions. The number of maximum alternations were therefore the total number of arm entries minus two and the percentage of alternation as calculated as (actual alternations / maximum alternations)×100. Calculated parameters consisted in the percentage of alternation (memory index) and the total number of arm entries (exploration index) (52-56).
In the first set of experiments (FIG. 1A), animals were tested after the beginning of the treatment at D30 and D38. In the second set of experiments (FIG. 1B), animals were tested after the beginning of the treatment, at D30 and D40.
(§6) All animals received a per os gavage using an inox steel cannula. Vehicle or Donepezil (1 mg/kg) were administered at D8 until D17; or at D20 until D30 or at D20 to D40 once a day. All the treatments were administered under a volume calculated according to the individual body weight of each mouse (5 mL/Kg).
as §5, with “8min” for “8 min”, “occasions.” for “occasions. The number of maximum alternations were therefore the total number of arm entries minus two and the percentage of alternation as calculated as (actual alternations / maximum alternations)×100. Calculated parameters consisted in the percentage of alternation (memory index) and the total number of arm entries (exploration index) (52-56).”

[4] = test system: Aβ25-35-induced step-through passive avoidance deficits in mice; assay: Step-through passive avoidance test (STPA) in Aβ25-35 ICV-injected mice; assay type: in vivo, Swiss mice
Method: as §1, §2, §3, §4
The guillotine door was initially closed during the training session. Each mouse was placed into the white compartment. After 5 s, the door was raised. […] The retention test was carried out 24 h after training. Each mouse was placed again into the white compartment. After 5 s, the door was raised.
as §6

SMILES	% of alternation in Y-maze at D42 ([1]; 1 mg/Kg from D7, at D42)	Difference of Y-maze effect from Sc.Aβ-vehicle animals ([1]; 1 mg/Kg from D7, between D21 and D28)	Y-maze activity after D48 until D100 ([1]; donepezil 1 mg/Kg only, D7 to D100)	Time after initiation of treatment at which cognitive function reaches its baseline level ([2]; Alzheimer's patients)	Period during which treatment improved the patient's cognitive function ([2]; Alzheimer's patients, from initiation of treatment)	Effect on Aβ25-35-induced cognitive impairment, spontaneous alternation (Y-maze), after longer treatment [3]	Effect on Aβ25-35-induced cognitive impairment, spontaneous alternation (Y-maze), after longer treatment ([3]; listed as DNPz)	Effect on Aβ25-35-induced cognitive impairment, spontaneous alternation (Y-maze) [3]	Effect on Aβ25-35-induced cognitive impairment, spontaneous alternation (Y-maze) ([3]; listed as DNPz)	Percentage drug effect in Y-maze at D30 ([3]; Example B, 1 mg/Kg D20 until D40, tested at D30)	Percentage drug effect in Y-maze at D38 ([3]; Example B, 1 mg/Kg D20 until D40, tested at D38, not statistically significant)	Recovery of Aβ25-35-induced cognitive impairment assessed by Y-maze ([3]; Example B, 1 mg/Kg per os once a day started at D08 (to D17), tested D15)	Activity in Y-maze, % of optimal activity ([3]; Example B, 1 mg/kg administered D20 to D30, tested D28)	Effect on long-term memory, passive avoidance (step-through latency and escape latency) ([4]; Example A, treatment alone D20 to D40 or D42, tested D39-40 or D41-42)	Recovery of Aβ25-35-induced cognitive impairment assessed by passive avoidance test ([4]; Example B, 1 mg/Kg started at D08 (to D17), tested D16-17)	Activity in passive avoidance test ([4]; Example B, 1 mg/kg administered D20 to D30, tested D29-30)	Fear conditioning memory assessed by STPA at D99/D100 ([4]; Example C, end of experiment, treatment until D100)	Efficacy over time in Alzheimer's patients ([2]; compared with donepezil studies)
COc1cc2c(cc1OC)C(=O)C(CC1CCN(Cc3ccccc3)CC1)C2 (stereo not drawn) [donepezil]	47%	not significantly different	inactivity was sustained	30 weeks	12 weeks	totally lost	not sustained	partially alleviated	partial activity	43%	25%	fully recover	44%	partially restored long-term memory	fully recover	partially active	altered	–
CCN(C)C(=O)Oc1cccc([C@H](C)N(C)C)c1 [rivastigmine]	–	–	–	–	–	–	–	–	–	–	–	–	–	–	–	–	–	limited efficacy
